Results from patent publication US8883856B2, “Compositions and methods for the treatment of inflammatory diseases using topoisomerase inhibitors” (priority 2000, dated 2014).

Legend:
stromelycin gene = assay: IL-1 induced stromelycin gene expression in chondrocytes; type: cell-based, calf
Description: This assay measures the levels of RNA for the two metalloproteinases, collagenase and stromelysin. Over-expression of these genes results in excessive synthesis and secretion of these two enzymes from articular chondrocytes and may represent part of the pathophysiology of rheumatoid arthritis. Agents that inhibit over-expression of collagenase and stromelysin can be antiarthritc agents. […] Proteoglycan gene expression is part of the normal physiology of chondrocytes.
Primary chondrocyte culture was freshly isolated from calf cartilage. The cells were plated (at 2.5×10^6/mL) in 100×20 mm culture dishes and incubated in Ham's F12 medium containing 5% fetal bovine serum (FBS) overnight at 37° C. The cells were starved with serum-free medium overnight. […] Then IL-1 (20 ng/mL) was added to each plate and the plates were incubated for an additional 18 hours. Total RNA was isolated by the acidified guanidine isothiocyanate method and subjected to electrophoresis on a denatured gel. Denatured RNA samples (15 ug) were analyzed by gel electrophoresis in a 1% denaturing gel, transferred to a nylon membrane, and hybridized respectively with the ^32P-labelled collagenase cDNA probe, ^32P-labelled stromelycin cDNA probe, ^32P-labelled proteoglycan cDNA probe and ^32P-labelled glyceraldehyde phosphate dehydrogenase (PAGDH) cDNA. The PAGDH levels acted as an internal standard to ensure roughly equal loading. The experimental results on X-ray films were scanned and analyzed with HP ScanJet.

[1] = In vitro drug release from polymeric formulations; type: physicochemical
human neutrophils = assay: Neutrophil chemiluminescence (neutrophil activation); type: cell-based
Description: Freshly prepared human neutrophils were incubated with the compound followed by stimulation of the cells with either plasma opsonized CPPD crystals, the bacterial chemoattractant, fMLP or the phorbol ester, PMA. Stimulation (or activation) of the cells induced superoxide anion generation which could be measured by the emission of light (chemiluminescence). Inhibition of neutrophil function was then determined by inhibition of chemiluminescence. Hanks buffered salt solution (HBSS) pH 7.4 was used throughout the study. All chemicals were purchased from Sigma Chemical Co. (St. Louis, Mo.) unless otherwise stated. All procedures were performed at 37° C. unless otherwise stated. CPPD (triclinic) crystals were prepared and characterized as previously reported (Jackson J K et al., J Rheumatol, 24: 341-348, 1996). The size distribution of the crystals was approximately 33% less than […]. Opsonization of crystals was carried out using 50% heparinized plasma and concentrations of 50 mg of CPPD in 1 mL of 50% plasma. Crystals were incubated with diluted plasma for 30 min at 37° C., centrifuged at 1000×g, then washed in HBSS and recentrifuged. Neutrophils were prepared from freshly collected, human, citrated whole blood. Briefly, 400 mL of blood were mixed with 80 mL of 4% dextran T500 (Pharmacia LKB, Biotechnology AB Uppsala, Sweden) in HBSS and allowed to settle for 1 h. Plasma was collected continuously and 5 mL applied to 5 mL Ficoll Paque (Pharmacia) in 15 mL polypropylene tubes (Corning, N.Y.). Following centrifugation at 500×g for 30 min, the neutrophil pellets were washed free of erythrocytes by 20 s of hypotonic shock. Neutrophils were resuspended in HBSS, kept on ice and used for experiments within 3 h. Neutrophil viability and purity was always greater than 90%.
A stock solution of drug was diluted in DMSO to give various concentrations of drug. Equal volumes of these solutions were added to neutrophils at 5×10^6 cells per mL under mild vortexing to achieve final concentrations with a final DMSO concentration of 0.25%. This DMSO concentration found to have no effect on control cell responses. Cells were incubated for 15 minutes at 37° C. before addition to crystals, fMLP or PMA.
Chemiluminescence studies were performed at a cell concentration of 5×10^6 cells per mL in HBSS with CPPD (50 mg/mL). In all experiments 0.5 mL of cells were added to 25 mg of CPPD or 1 uM fMLP (and 0.5 uM cytochalasin B) or 0.5 uM PMA in 1.5 ml Eppendorf tubes. To the tubes were added 10 uL of luminol dissolved in 25% DMSO in HBSS to give a final concentration of 1 μM and the samples were mixed to initiate neutrophil activation. Chemiluminescence was monitored using an LKB Luminometer (Model 1250) at 37° C. with shaking immediately prior to measurements to resuspend the crystals. Control tubes contained cells, drug and luminol (crystals absent).

[2] = system: chorioallantoic membrane of the chick embryo; assay: Angiogenesis in the chick chorioallantoic membrane (CAM assay); type: in vivo; details: for number of eggs (CAM's) with antiangiogenic activity None (score 0) / number of eggs (CAM's) with antiangiogenic activity Partial (score 1-2) / number of eggs (CAM's) with antiangiogenic activity Maximal (score 3): 48 hours
Description: Sheets of sterile waxed paper were placed onto the window that was created in the air space and were used to prevent contamination and dehydration of the egg contents. These sheets, measuring 4 cm×4 cm, were sterilized by spraying them with 70% ethanol and allowing them to dry in the laminar flow hood. […] Using 70% ethanol and Kimwipes, the entire eggshell was wiped down to help clean and sanitize the outside of the egg. Inside a laminar flow hood, the egg was held with the blunt side up and a hole was made in the blunt end of the egg by carefully cracking the shell with the end of forceps. The shell remnants were gently removed with forceps to form a hole in the blunt end. This circular hole was made as large as 2 to 3 cm in diameter without damaging the inner membrane. Once the hole was created in the shell, the inner shell membrane (which houses the egg contents) was gently torn and removed using the forceps, taking care not to damage the chorioallantoic membrane (CAM) (which houses the yolk and developing chick embryo). The hole was then covered with the sheet of sterilized parafilm wax paper by gently stretching the parafilm and then placing it around the hole. The egg was then placed in the egg rack in the incubator (37° C.) and positioned in such a way as to prevent rotation. After 6 days each egg was removed one by one from the incubator (blunt side up), and the parafilm covering the window was removed for direct access to the CAM, which originates from the hind gut of the embryo. The drug-loaded polymer was placed onto the growing capillary bed of the CAM. The egg contents were then resealed with the parafilm sheet and placed back into the 37° C. incubator. […] The values of the avascular scale describe the following: […]

[3] = ethylene vinyl acetate films, PBS pH 7.4, 37° C.
[4] = polycaprolactone paste, PBS, 37° C.
[5] = summary over all concentrations tested in PCL or PCL-MePEG pellets

Compound | IL-1 induced stromelycin gene expression (stromelycin gene; 1×10^−5 M) | drug release profile [1, 3] | drug release profile [1, 4] | number of eggs (CAM's) with antiangiogenic activity None (score 0) ([2]; 1.0% w/w in PCL pellet) | number of eggs (CAM's) with antiangiogenic activity Partial (score 1-2) ([2]; 1.0% w/w in PCL pellet) | number of eggs (CAM's) with antiangiogenic activity None (score 0) ([2]; 4.0% w/w in PCL pellet) | number of eggs (CAM's) with antiangiogenic activity Partial (score 1-2) ([2]; 4.0% w/w in PCL pellet) | inhibition of angiogenesis in the CAM, in words [2, 5] | number of eggs (CAM's) with antiangiogenic activity Partial (score 1-2) ([2]; 0.5% w/w in PCL pellet) | number of eggs (CAM's) with antiangiogenic activity Partial (score 1-2) ([2]; 5.0% w/w in PCL pellet) | inhibition at 10 µM (human neutrophils; Homo sapiens, Neutrophil) [%] | also measured
CC1(C)CCC2=C(O1)c1ccccc1C(=O)C2=O [beta-lapachone] | almost completely inhibited | initial burst of drug release followed by a slow sustained release | initial burst of drug release followed by a slow sustained release | 4 | 2 | 4 | 11 | inhibited angiogenesis in almost all CAM's | – | – | – | IC50 (human neutrophils; Homo sapiens, Neutrophil, three agonists: CPPD crystals, fMLP, PMA, read-out: IC 50, inhibition of neutrophil chemiluminescence): 1 to 10 µM; number of eggs (CAM's) with antiangiogenic activity Maximal (score 3) ([2]; 4.0% w/w in PCL pellet): 6; inhibition of angiogenesis in the CAM, in words ([2]; 6% w/w in PCL): partial to full inhibition of angiogenesis; number of eggs (CAM's) with antiangiogenic activity Partial (score 1-2) ([2]; 60% in PCL pellet as printed): 10
CC[C@@]1(O)C(=O)OCc2c1cc1n(c2=O)Cc2cc3ccccc3nc2-1 [camptothecin] | – | initial burst of drug release followed by a slow sustained release | initial burst of drug release followed by a slow sustained release | 4 | 6 | – | – | extensive inhibition of angiogenesis | 12 | 20 | – | IL-1 induced stromelycin gene expression (stromelycin gene; 1×10^−7 M): almost completely inhibited; effect of addition of MePEG to the PCL on release rate ([1]; 10% and 20% camptothecin loaded PCL paste, 20% MePEG): accelerated the release rate; drug release profile ([1]; chitosan films, PBS pH 7.4, 37° C.): initial burst of drug release followed by a slow sustained release; drug release profile ([1]; poly(L-lactic acid) microspheres, PBS pH 7.4, 37° C.): initial burst of drug release followed by a slow sustained release; drug release profile ([1]; triblock copolymer/MePEG paste, PBS pH 7.4 with n-octanol, 37° C.): initial burst of drug release followed by a slow sustained release; inhibition of neutrophil chemiluminescence (human neutrophils; concentration printed as (5%)): 2%; number of eggs (CAM's) with antiangiogenic activity None (score 0) ([2]; 0.1% w/w in PCL pellet): 7; number of eggs (CAM's) with antiangiogenic activity Partial (score 1-2) ([2]; 0.1% w/w in PCL pellet): 1; inhibition of angiogenesis in the CAM, in words ([2]; 0.5% (w/w to PCL)): strong evidence of inhibition of angiogenesis; number of eggs (CAM's) with antiangiogenic activity Maximal (score 3) ([2]; 0.5% w/w in PCL pellet): 2; number of eggs (CAM's) with antiangiogenic activity None (score 0) ([2]; 0.5% w/w in PCL pellet): 8; number of CAM's with full or partial inhibition ([2]; 5% (w/w to PCL)): 29; number of eggs (CAM's) with antiangiogenic activity Maximal (score 3) ([2]; 5.0% w/w in PCL pellet): 9; number of eggs (CAM's) with antiangiogenic activity None (score 0) ([2]; 5.0% w/w in PCL pellet): 3
COc1cccc2c1C(=O)c1c(O)c3c(c(O)c1C2=O)C[C@@](O)(C(=O)CO)C[C@@H]3O[C@H]1C[C@H](N)[C@H](O)[C@H](C)O1 [doxorubicin] | completely inhibited | initial burst of drug release followed by a slow sustained release | initial burst of drug release followed by a slow sustained release | – | – | – | 4 | partially inhibited angiogenesis in all but one CAM | 5 | 3 | 13 | stromelysin expression (stromelycin gene; 1×10^−6 M): partial inhibition; number of eggs (CAM's) with antiangiogenic activity None (score 0) ([2]; 2.0% w/w in PCL pellet): 1; number of eggs (CAM's) with antiangiogenic activity Partial (score 1-2) ([2]; 2.0% w/w in PCL pellet): 20; inhibition of angiogenesis in the CAM, in words ([2]; 5% (w/w to PCL)): partial to full inhibition of angiogenesis
COc1cc([C@@H]2c3cc4c(cc3[C@@H](O[C@@H]3O[C@@H]5CO[C@@H](C)O[C@H]5[C@H](O)[C@H]3O)[C@H]3COC(=O)[C@H]23)OCO4)cc(OC)c1O [etoposide] | inhibited | initial burst of drug release followed by a slow sustained release | initial burst of drug release followed by a slow sustained release | – | – | 2 | 5 | inhibited angiogenesis in almost all CAM's treated | – | – | 25 | number of eggs (CAM's) with antiangiogenic activity Partial (score 1-2) ([2]; 8.0% w/w in PCL pellet): 5; number of eggs (CAM's) with antiangiogenic activity Maximal (score 3) ([2]; 15.0% w/w in PCL pellet): 4; number of eggs (CAM's) with antiangiogenic activity Partial (score 1-2) ([2]; 15.0% w/w in PCL pellet): 9; number of CAM's showing full inhibition ([2]; all etoposide pellets (4%, 8%, 15% PCL; 10% PCL-MePEG)): five
